Reference: patent EP4608400B1, “COMPOUND FOR TREATMENT OF PAIN” (Initiator Pharma A/S, priority 2022, dated 2024)
Structures can show the parent of a compound that is named as a salt.

Assays:
[1] = system: intradermal capsaicin model; assay: Phase I crossover study, intradermal capsaicin model: pharmacodynamics; type: in vivo, human
Description: Participants. The volunteers were males aged 18 to 55 years with a body mass index (BMI) of 18 to 30 kg/m2. They were healthy as determined by a responsible physician, based on a medical evaluation including medical history, physical examination, concomitant medication, vital signs, 12-lead ECG, and clinical laboratory evaluations. The participants must have been in good general health with a skin type compatible with the measures and without significant skin allergies, pigmentary disorders or any active dermatological conditions. […] The participants provided written informed consent, which included compliance with the requirements and restrictions listed in the consent form, including the use of a condom during the trial and for 3 months after their final dose of trial medication, if their partner was a woman of childbearing potential.
Clinical and laboratory data. Prior to and 15, 30, 60, 90 and 120 minutes after administration of capsaicin, measurements of pain, hyperalgesia, allodynia and AF were performed. At 2 hours post-capsaicin injection, subjects completed a quantitative sensory testing (QST) battery at two sites on the volar surface of each forearm. One site was the most recent capsaicin injection site, and the other was at an equivalent point on the opposite forearm. […] There was a minimum washout period of 5 days between treatment periods.
Reconstitution was performed by a Pharmacist at the clinical site prior to dosing.
(§1) In order to maintain the blind, a double dummy approach was used.
Subjects were randomised to receive a single administration of a treatment combination during each treatment period. All subjects received each treatment combination once only.
Evaluation methods: Pharmacodynamics was assessed through pain measurements (response to ID injection of capsaicin, measurement of pain using a visual analogue scale, area and pain score of hyperalgesia, area and pain score of allodynia, and AF) and the ID capsaicin model. Subjects also completed a QST battery at two sites on the volar surface of either forearm. The QST battery included the following tests: thermal detection and pain thresholds, mechanical detection and pain thresholds, stimulus/response functions, wind-up ratio and pressure pain threshold.
For measurement of pain, a visual analogue scale (VAS) was used. The VAS consisted of a 100 mm line, with 0 representing "no pain" and 100 representing "worst pain imaginable". Subjects were asked to mark the VAS using a single vertical stroke at the point they considered to appropriately reflect their level of pain from the injection of capsaicin (not general pain). A new VAS was provided for each time point and subjects were not allowed to see their previous VAS responses. The VAS was scored by measuring from the left-hand end of the scale to the point where the subject had marked the line, and the distance in mm was recorded.
Response to pain was also assessed by a numeric rating scale (NRS). For example, by using an 11-point numeric rating scale ranging from 0 ("no pain") to 10 ("worst possible pain") and asking the subject to rate their pain. A NRS scale of 0 to 100 was also used in some assesments.
The thermal tests were performed using a thermode probe (Medoc). Cold and warm detection thresholds were measured first, then cold pain and heat pain thresholds were determined. The mean threshold temperature of 3 consecutive measurements was calculated. All thresholds were obtained with ramped stimuli (1°C/sec) that were terminated when the subject pressed a button. For thermal detection thresholds the ramp back to baseline was 1°C/sec, while for thermal pain thresholds this ramp was chosen at maximum device capacity resulting in approximately a nominal 5°C/sec.
The mechanical detection threshold was measured with a standardised set of modified von Frey nylons that exerted forces upon bending between 0.25 and 512 mN graded by a factor of 2 (1 to 2 seconds contact time). […]

[2] = Phase I crossover study, intradermal capsaicin model: safety evaluation (TEAEs); type: in vivo, human; conditions: 300 mg pregabalin
Description: as §1
Safety was assessed through AE reporting, 12-lead ECG, vital signs, physical examinations and clinical laboratory evaluations. Pharmacokinetics was assessed by blood sampling.

[3] = target: T1, dopamine (DA) reuptake in synaptosomes (Rattus norvegicus, UniProt P23977); conditions: hydrochloride; reported in US 9,133,184 B1; cited from earlier work
T1 construct: in synaptosomes as described in WO 97/16451 (NeuroSearch A/S); from tissue

[4] = target: T2, noradrenaline (NA) reuptake in synaptosomes (Rattus norvegicus, UniProt Q63380); conditions: hydrochloride; reported in US 9,133,184 B1; cited from earlier work
T2 construct: in synaptosomes as described in WO 97/16451 (NeuroSearch A/S); from tissue
T2 sequence (Q63380 1-617): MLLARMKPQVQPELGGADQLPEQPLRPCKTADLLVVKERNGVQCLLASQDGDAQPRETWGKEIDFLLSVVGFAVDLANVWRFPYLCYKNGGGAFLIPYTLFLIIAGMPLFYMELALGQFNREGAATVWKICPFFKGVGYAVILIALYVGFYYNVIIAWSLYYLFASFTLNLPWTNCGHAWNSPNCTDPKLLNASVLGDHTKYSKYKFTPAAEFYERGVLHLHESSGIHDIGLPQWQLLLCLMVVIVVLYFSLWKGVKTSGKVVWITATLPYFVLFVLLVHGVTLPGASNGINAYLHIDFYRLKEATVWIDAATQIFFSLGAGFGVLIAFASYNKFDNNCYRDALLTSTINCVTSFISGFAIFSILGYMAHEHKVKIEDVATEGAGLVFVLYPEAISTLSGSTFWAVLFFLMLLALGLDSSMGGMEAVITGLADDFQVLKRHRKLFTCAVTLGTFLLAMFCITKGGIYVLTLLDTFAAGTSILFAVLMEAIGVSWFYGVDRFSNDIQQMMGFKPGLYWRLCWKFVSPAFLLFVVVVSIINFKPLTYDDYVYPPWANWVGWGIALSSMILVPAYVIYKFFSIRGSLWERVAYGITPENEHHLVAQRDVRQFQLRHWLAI

T1 sequence (P23977 whole entry): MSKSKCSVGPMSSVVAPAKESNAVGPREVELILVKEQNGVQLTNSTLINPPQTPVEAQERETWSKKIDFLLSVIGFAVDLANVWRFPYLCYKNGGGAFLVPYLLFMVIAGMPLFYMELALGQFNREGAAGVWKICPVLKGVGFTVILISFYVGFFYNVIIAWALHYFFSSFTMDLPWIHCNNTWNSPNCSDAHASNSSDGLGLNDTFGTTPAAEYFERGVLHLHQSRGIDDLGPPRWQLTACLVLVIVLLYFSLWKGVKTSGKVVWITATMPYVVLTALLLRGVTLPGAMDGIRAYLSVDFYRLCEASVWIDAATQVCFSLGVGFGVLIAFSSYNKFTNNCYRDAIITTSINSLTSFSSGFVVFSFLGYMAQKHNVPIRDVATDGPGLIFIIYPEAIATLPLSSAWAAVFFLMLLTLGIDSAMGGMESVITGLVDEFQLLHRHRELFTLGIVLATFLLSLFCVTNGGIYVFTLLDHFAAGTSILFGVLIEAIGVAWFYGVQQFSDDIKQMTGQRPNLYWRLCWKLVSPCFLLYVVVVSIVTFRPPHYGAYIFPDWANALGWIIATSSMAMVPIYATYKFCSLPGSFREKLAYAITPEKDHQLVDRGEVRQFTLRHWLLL

| Structure (SMILES) | adjusted mean pain score of hyperalgesia compared to placebo ([1]; 5 mg and 10 mg IP2015, 300 mg pregabalin, all post-capsaicin injection timepoints) | average decrease in hyperalgesic area across all timepoints compared to placebo ([1]; 300 mg pregabalin) | Pain Score of Brush-evoked Allodynia Using an NRS, Adjusted Mean (MMRM) ([1]; 300 mg pregabalin capsule, overall, all timepoints, N=24, placebo 2.0) | Subjective Rating of Pain, Adjusted Mean (MMRM) ([1]; 300 mg pregabalin capsule, overall, all timepoints, N=24, placebo 17.1) | decrease of subjective rating of pain compared to placebo ([1]; 300 mg pregabalin, 15 min post capsaicin) | decrease of subjective rating of pain compared to placebo ([1]; 300 mg pregabalin, 30 min post capsaicin) | decrease of subjective rating of pain compared to placebo ([1]; 300 mg pregabalin, 60 min post capsaicin) | overall increase in warm detection threshold between test and control areas (QST) ([1]; 300 mg pregabalin, p = 0.063, post-hoc analysis) | incidence of TEAEs (share of subjects) [2] | moderate TEAE dizziness [2] | moderate TEAE mood altered [2] | number of TEAEs reported [2] | subjects reporting TEAEs [2] | IC50 [3] | IC50 [4] |
| --- | --- | --- | --- | --- | --- | --- | --- | --- | --- | --- | --- | --- | --- | --- | --- |
| CC(C)C[C@H](CN)CC(=O)O [pregabalin, reference compound] | lower | 7.8 cm^2 | 1.5 | 14.4 mm | 1.5 mm | 3.8 mm | 4.4 mm | close to significance | 79.2% | 1 subject | 1 subject | 28 events | 19 subjects |  |  |
| COc1cc2ccc(O[C@@H]3C[C@H]4CC[C@@H](C3)N4)cc2oc1=O [compound of formula (I) hydrochloride, exo-7-[(8-azabicyclo[3.2.1]octan-3-yl)oxy]-3-methoxy-chromen-2-one hydrochloride] |  |  |  |  |  |  |  |  |  |  |  |  |  | 0.07 µM | 0.0038 µM |
